# Where two headings read alike, the source gives them in different places.
# How the values were obtained:
# [1] = Mouse (20 g); BALB/c blood, 37 °C, 1 h
# Description: (§3) Fresh blood was collected from BALB/c mice and Sprague-Dawley rats via cardiac puncture in tubes with lithium heparin as anticoagulant. Hematocrit was measured using a VetScan HM5 hematology analyzer (Abaxis, Union City, CA, USA). […] Aliquots of pre-warmed whole blood and plasma were spiked with the test compounds and incubated at 37 °C. After 1 h of incubation, the incubated whole blood was removed, and the plasma was separated by centrifugation. Aliquots of the incubated control plasma were also removed after 1 h of incubation. Plasma samples were treated with 8 volumes of ice-cold methanol containing internal standard (100 ng/mL spectinomycin) and analyzed for drug concentrations by LC-MS/MS [12].
# (§4) The whole blood to plasma ratio k(b/p) was calculated by taking the ratio of the concentrations measured in the control plasma over the concentrations measured in the plasma centrifuged from the incubated whole blood, as shown in Equation (2). The erythrocyte to plasma partitioning coefficient k(RBC/p) was calculated from the whole blood to plasma ratio by accounting for the measured hematocrit, as shown in Equation (3):(2) k(b/p)=CCP/CP (3) k(RBC/p)=1+1/HCCP/CP−1 where CCP is the concentration of the test compound in the control plasma, CP is the concentration of the test compound in the plasma centrifuged from the incubated whole blood, and H is the measured hematocrit value.
# ELF proteins [2] = test: Fraction unbound in epithelial lining fluid calculated by Poulin and Theil equation, mouse; details: calculated from fu in plasma and albumin ratio plasma/ELF
# Description: (§1) For intravenous administration, the bolus dose was assumed to be mixed instantaneously into the venous blood. For subcutaneous administration, the dose was administered as an external compartment, absorbed into the venous compartment via a first-order absorption rate constant and a bioavailability component. For intrapulmonary aerosol administration, we have modified the lung tissue by adding the epithelial lining fluid (ELF) sub-compartment, as shown in Figure 2. The physiological volume of the ELF sub-compartment was obtained from the literature. The dose was administered as an external compartment, absorbed into the ELF compartment via a first-order absorption rate constant and a bioavailability component. The compound was assumed to be bound to the ELF proteins, and only the unbound fraction was distributed to the other sub-compartments of the lungs and ultimately to the systemic circulation. The fraction unbound in ELF was calculated from the fraction unbound in plasma and the albumin ratio between plasma and ELF using the equation described by Poulin and Theil.
# [3] = Minimalistic PBPK model, mouse (fitting and simulation); details: for F Bioavailability component / Ka 1st order absorption rate constant / AUCinf Liver Fold Difference / AUCinf Lung Fold Difference / AUCinf Fold Difference (predicted vs observed) / AUCinf Spleen Fold Difference: healthy mice; for AUCinf Fold Difference (predicted vs observed): plasma
# [4] = Parallel artificial membrane permeability assay (PAMPA); type: in vitro ADME; details: passive permeability could not be determined
# [5] = Integrated mouse and rat PBPK model, inter-animal variability; details: Intravenous Estimate (%RSE); simultaneous fit of mouse and rat plasma and tissue data
# [6] = healthy rats, plasma, IV SD 10 mg/kg; cited from earlier work
# [7] = Simcyp multicompartment lung and granuloma model simulation; details: Simcyp model input parameter (Table S1), human PBPK model
# [8] = healthy rats, plasma, IV SD 10 mg/kg
# Description: After the successful inter-route extrapolation of the model, we scaled the PBPK model between species by extending the model to rats. This was accomplished by incorporating the physiological parameters of a 225 g rat and updating the experimentally assessed drug-specific parameters k(b/p) and fu.
# [9] = test system: murine-lung-derived dendritic cells and a BALB/c-derived monocyte macrophage cell line; details: cited from earlier work
# ELF proteins [10] = test: Fraction unbound in epithelial lining fluid calculated by Poulin and Theil equation, rat; details: calculated from fu in plasma and albumin ratio plasma/ELF
# Description: as §1
# [11] = cited from earlier work; for AUCinf Liver Observed / AUCinf Lung Observed / AUCinf Observed / AUCinf Spleen Observed: healthy mice; for AUCinf Observed: plasma
# plasma proteins [12] = test: Plasma protein binding by equilibrium dialysis (RED device), mouse plasma; type: in vitro ADME, BALB/c mice
# Description: (§2) Plasma protein binding was measured by equilibrium dialysis using a RED device (8 kDa molecular cutoff; Thermo Scientific, Rockford, IL, USA) containing plasma and buffer chambers for dialysis and a base plate. Two concentrations (0.5 and 5 mg/L) of 1599 and 1810 were prepared in mouse plasma from BALB/c mice and rat plasma from Sprague-Dawley rats, and an aliquot of 300 µL was added in the plasma chamber in duplicate. A 500 µL aliquot of PBS was added in the buffer chamber for dialysis. Then, the base plate was covered with sealing tape and incubated at 37 °C at approximately 100 rpm on an orbital shaker for 4 h to achieve equilibrium. After incubation, 50 µL of each sample was pipetted from the plasma and buffer chambers into separate micro-centrifuge tubes. A total of 50 µL of plasma was added to the buffer samples and an equal volume of PBS to the collected plasma samples and vortexed. Samples were processed by protein precipitation and analyzed for bound and unbound drug concentrations by liquid chromatography-tandem mass spectrometry (LC-MS/MS). Ranitidine (0.5 and 5 mg/L) was included as a positive control. The fraction of compound unbound to plasma proteins (fu) was calculated from the measured concentrations in the plasma and buffer chambers using the following equation:(1) fu=1−C(Plasma Chamber)−C(Buffer Chamber)/C(Plasma Chamber)
# [13] = Rat (225 g); Sprague-Dawley blood, 37 °C, 1 h
# Description: as §3, §4
# [14] = Subcutaneous PBPK model predictions vs observed plasma concentrations in Mtb infected mice; type: in vivo, BALB/c mice; details: SC dose-ranging and dose-fractionation studies
# plasma proteins [15] = test: Plasma protein binding by equilibrium dialysis (RED device), rat plasma; type: in vitro ADME, Sprague-Dawley rats; details: 0.5 and 5 mg/L, 37 °C, 4 h
# Description: as §2
# [16] = Intratracheal Estimate (%RSE), intrapulmonary aerosol single dose 50 mg/kg
# [17] = Intravenous Estimate (%RSE), model fitted to IV single dose 10 mg/kg plasma and tissue data
compound,measurement,setting,value
"CN[C@@H]1[C@H](O)[C@H](NC)[C@H]2O[C@]3(O)[C@H](O[C@@H]2[C@H]1O)O[C@H](C)C[C@H]3NC(=O)Cc1ccc(Cl)cn1 [Spectinamide 1599, 2-(5-chloroypyridin-2-yl)-N-((2R,4R,4aS,5aR,6S,7S,8R,9S,9aR, 10aS)-4a,7,9-trihydroxy-2-methyl-6,8-bis(methyl-amino)decahydro-2H-benzo[b]pyrano [2,3-e] [1,4]dioxin-4-yl)acetamide]",k(b/p) blood to plasma ratio,[1],0.552
same,fuELF fraction unbound in epithelial lining fluid,ELF proteins [2],0.948
same,estimated absorption half-life,"[3]; IPA administration site, mice",~ 8 min
same,bioavailability,"[3]; IPA administration, mice",33%
same,F Bioavailability component,[3]; [16],0.33 (2.03)
same,Ka 1st order absorption rate constant,[3]; [16],5.03 (4.53)
same,KC→IKidney 1st order back flux from cellular sub compartment of the kidney,[3]; [17],0.15 (31.0) 1/h
same,KC→ILiver 1st order back flux from cellular sub compartment of the liver,[3]; [17],0.061 (13.7) 1/h
same,KC→ILung 1st order back flux from cellular sub compartment of the lung,[3]; [17],0.028 (41.5) 1/h
same,KC→ISpleen 1st order back flux from cellular sub compartment of the spleen,[3]; [17],0.01 (106) 1/h
same,KC→Iothers 1st order back flux from cellular sub compartment of the other tissues,[3]; [17],7.0 × 10^−5 (142) 1/h
same,F Bioavailability component,[3]; Subcutaneous Estimate (%RSE),0.86 (6.15)
same,Ka 1st order absorption rate constant,[3]; Subcutaneous Estimate (%RSE),4.36 (7.86)
same,AUCinf Liver Fold Difference,[3]; IV QD5 10 mg/kg,1.58
same,AUCinf Liver Fold Difference,[3]; IV SD 10 mg/kg,1.2
same,AUCinf Liver Fold Difference,[3]; SC QD5 200 mg/kg,1.55
same,AUCinf Liver Fold Difference,[3]; SC SD 50 mg/kg,1.3
same,AUCinf Lung Fold Difference,[3]; IV QD5 10 mg/kg,1.39
same,AUCinf Lung Fold Difference,[3]; IV SD 10 mg/kg,1.65
same,AUCinf Lung Fold Difference,[3]; SC QD5 200 mg/kg,1.42
same,AUCinf Lung Fold Difference,[3]; SC SD 50 mg/kg,1.41
same,AUCinf Fold Difference (predicted vs observed),[3]; IPA BIW 50 mg/kg,1.70
same,AUCinf Fold Difference (predicted vs observed),[3]; IPA BIW 150 mg/kg,1.49
same,AUCinf Fold Difference (predicted vs observed),[3]; IPA QD5 10 mg/kg,1.36
same,AUCinf Fold Difference (predicted vs observed),[3]; IPA QD5 50 mg/kg,1.64
same,AUCinf Fold Difference (predicted vs observed),[3]; IPA QD5 150 mg/kg,1.33
same,AUCinf Fold Difference (predicted vs observed),[3]; IPA SD 10 mg/kg,1.13
same,AUCinf Fold Difference (predicted vs observed),[3]; IPA SD 50 mg/kg,1.05
same,AUCinf Fold Difference (predicted vs observed),[3]; IPA SD 150 mg/kg,1.23
same,AUCinf Fold Difference (predicted vs observed),[3]; IPA TIW 10 mg/kg,1.11
same,AUCinf Fold Difference (predicted vs observed),[3]; IPA TIW 50 mg/kg,1.00
same,AUCinf Fold Difference (predicted vs observed),[3]; IPA TIW 150 mg/kg,1.18
same,AUCinf Fold Difference (predicted vs observed),[3]; IV QD5 10 mg/kg,1.39
same,AUCinf Fold Difference (predicted vs observed),[3]; IV SD 10 mg/kg,1.18
same,AUCinf Fold Difference (predicted vs observed),[3]; SC QD5 200 mg/kg,1.43
same,AUCinf Fold Difference (predicted vs observed),[3]; SC SD 50 mg/kg,1.02
same,AUCinf Spleen Fold Difference,[3]; IV QD5 10 mg/kg,1.44
same,AUCinf Spleen Fold Difference,[3]; IV SD 10 mg/kg,1.47
same,AUCinf Spleen Fold Difference,[3]; SC QD5 200 mg/kg,1.14
same,AUCinf Spleen Fold Difference,[3]; SC SD 50 mg/kg,1.11
same,estimated first-order absorption half-life,"[3]; subcutaneous administration site, mice",~ 10 min
same,bioavailability,"[3]; subcutaneous administration, mice",86%
same,PAMPA concentrations in the acceptor compartment,[4],below the limit of detection
same,ω KI→CLiver inter-animal variability on KI→CLiver,[5],0.61 (29.8)
same,ω KI→CLung inter-animal variability on KI→CLung,[5],0.87 (30.6)
same,ω KI→COther inter-animal variability on KI→COthers,[5],0.48 (21.6)
same,ω KI→CSpleen inter-animal variability on KI→CSpleen,[5],0.66 (41.0)
same,AUCinf Observed,[6],19800 ng·h/mL
same,CLR renal clearance,[7],3.27 L/h
same,AUCinf Fold Difference (predicted vs observed),[8],1.58
same,intracellular uptake,[9],concentration-dependent intracellular uptake
same,fuELF fraction unbound in epithelial lining fluid,ELF proteins [10],0.940
same,dose dependency of disposition,[11]; dose range of 10 to 400 mg/kg in mice,did not suggest any dose dependencies
same,AUCinf Liver Observed,[11]; IV QD5 10 mg/kg,19.6 µg·h/g
same,AUCinf Liver Observed,[11]; IV SD 10 mg/kg,19.9 µg·h/g
same,AUCinf Liver Observed,[11]; SC QD5 200 mg/kg,336 µg·h/g
same,AUCinf Liver Observed,[11]; SC SD 50 mg/kg,91.8 µg·h/g
same,AUCinf Lung Observed,[11]; IV QD5 10 mg/kg,4.05 µg·h/g
same,AUCinf Lung Observed,[11]; IV SD 10 mg/kg,3.79 µg·h/g
same,AUCinf Lung Observed,[11]; SC QD5 200 mg/kg,69.1 µg·h/g
same,AUCinf Lung Observed,[11]; SC SD 50 mg/kg,19.1 µg·h/g
same,AUCinf Observed,[11]; IPA BIW 50 mg/kg,14200 ng·h/mL
same,AUCinf Observed,[11]; IPA BIW 150 mg/kg,108000 ng·h/mL
same,AUCinf Observed,[11]; IPA QD5 10 mg/kg,3570 ng·h/mL
same,AUCinf Observed,[11]; IPA QD5 50 mg/kg,39800 ng·h/mL
same,AUCinf Observed,[11]; IPA QD5 150 mg/kg,96900 ng·h/mL
same,AUCinf Observed,[11]; IPA SD 10 mg/kg,5510 ng·h/mL
same,AUCinf Observed,[11]; IPA SD 50 mg/kg,23200 ng·h/mL
same,AUCinf Observed,[11]; IPA SD 150 mg/kg,59500 ng·h/mL
same,AUCinf Observed,[11]; IPA TIW 10 mg/kg,5360 ng·h/mL
same,AUCinf Observed,[11]; IPA TIW 50 mg/kg,24300 ng·h/mL
same,AUCinf Observed,[11]; IPA TIW 150 mg/kg,61700 ng·h/mL
same,AUCinf Observed,[11]; IV QD5 10 mg/kg,6370 ng·h/mL
same,AUCinf Observed,[11]; IV SD 10 mg/kg,7520 ng·h/mL
same,AUCinf Observed,[11]; SC QD5 200 mg/kg,227000 ng·h/mL
same,AUCinf Observed,[11]; SC SD 50 mg/kg,40400 ng·h/mL
same,AUCinf Spleen Observed,[11]; IV QD5 10 mg/kg,3.91 µg·h/g
same,AUCinf Spleen Observed,[11]; IV SD 10 mg/kg,3.42 µg·h/g
same,AUCinf Spleen Observed,[11]; SC QD5 200 mg/kg,110 µg·h/g
same,AUCinf Spleen Observed,[11]; SC SD 50 mg/kg,23.6 µg·h/g
same,fuPlasma fraction unbound in plasma,"plasma proteins [12]; Mouse plasma, 0.5 and 5 mg/L, 37 °C, 4 h",0.602
same,plasma protein binding,plasma proteins [12]; mouse and rat,low plasma protein binding
same,k(b/p) blood to plasma ratio,[13],0.812
same,difference in pharmacokinetics between healthy and infected mice,[14],no significant difference
same,fuPlasma fraction unbound in plasma,plasma proteins [15],0.563
